Target: T1, Aβ42 (amyloid-β protein) (Homo sapiens, UniProt P05067)
T1 construct: gene APP; synthetic Aβ42 peptide, low-molecular-weight (LMW, monomeric) Aβ42
Assay: ThT fluorescence aggregation assay with purified LMW Aβ[…] (no seeds); electron microscopy
Type: biochemical

T1 sequence (P05067 672-713 limits assumed): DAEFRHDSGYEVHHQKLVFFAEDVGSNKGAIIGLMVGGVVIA

SMILES: COc1cc(CCC(=O)O)ccc1O [HMPA, 3-(4-Hydroxy-3-methoxyphenyl) propionic acid]
- EC50: 6.37 mM

From PMC12292628, “Inhibitory Effects of 3-(4-Hydroxy-3-methoxyphenyl) Propionic Acid on Amyloid β-Peptide Aggregation In Vitro” (Biomedicines, 2025)
